One assay has as its system HCC1937 spheroids. Kind of assay: Three-dimensional tumour spheroid proliferation (spheroid area). The following applies: for spheroid size, Cx43-restituted smaller than EV counterparts: after 8 days, 3000 initial cell density. It is filed as cell-based, human. The procedure:
The bottom of 96-well flat bottom microplates (Greiner Bio-One) was coated with 1.5 % solution of UltraPure Low Melting Point Agarose (Invitrogen, Thermo Fisher Scientific). Agarose concave bottoms provide non-adhesive conditions and increase cell contacts. 100-200 µL of single-cell suspensions were plated on top of the agarose diluted in their respective media supplemented with 3.5 % Matrigel Matrix Basement Membrane Growth Factor Reduced (Corning) and 5 ng/mL human recombinant EGF (Sigma-Aldrich). Afterwards, plates were incubated under standard cell culture conditions and spheroids were monitored from day 2 onwards by optical microscopy.
Uniform-sized spheroids were produced by plating 3000 EV and Cx43_HCC1937 cells under ultra-low attachment conditions, as well as 5000 Cx43_HCC1937 cells in parallel to account for the expected anti-proliferative effect of Cx43 in untreated tumour cells (day -4) (Figure 7). […] Spheroids were individually tracked during this time and their size was registered every 48 h.
Afterwards, spheroid area measurements were pooled for each condition and EV spheroids were compared against Cx43_HCC1937 spheroids, either those plated at 3000 or 5000 initial cell densities.
Next, Cx43 involvement in the TNBC pathogenesis was studied under more physiological approaches, namely 3D spheroid culture (Figure 10.B) and Anoikis-inducing conditions (Figure 10.C). 3D spheroid culture (Figure 10.B) of HCC1937 cells for 12 days further corroborated the reduction in proliferation determined in 2D culture (Figure 10.A) resulting from Cx43 restoration.

The next assay has as its system RAD51 and 53BP1. Kind of assay: RAD51 and 53BP1 immunofluorescence. It is filed as cell-based, human. The following applies: olaparib 100 µM, 96 h. The procedure: (§1) 2 000-10 000 cells were plated on glass coverslips (Thermo Fisher Scientific) previously coated with poly-D-lysine hydrobromide (Sigma-Aldrich) and cultured until they were approximately 80 % confluent. They were washed with PBS, fixed with 4 % paraformaldehyde (PFA, Sigma-Aldrich) in PBS for 15 min at room temperature and rinsed twice with PBS. Next, cells were incubated with 0.1 M glycine (Sigma-Aldrich) in distilled water to quench PFA for 10 min at room temperature, and then their membranes were permeabilized with 0.2 % Triton X-100 (Sigma-Aldrich) in PBS for 10 min at room temperature. After two 5 min PBS washes, potential nonspecific antibody binding sites were blocked with 1 % bovine serum albumin (BSA; Sigma-Aldrich) diluted in PBST (PBS+0.1 % Tween 20; Sigma-Aldrich) for 30 min at room temperature. Cells were incubated overnight at 4 °C in the dark with primary antibody (see references in Table 3) diluted in 1 % BSA in PBST. The next day, cells were rinsed three times in PBS for 10 min each, and then incubated 1 h at room temperature in the dark with secondary antibody (see references in Table 3) diluted in 1 % BSA in PBST. After that, they were washed three times with PBS for 5 min each, and their nuclei were stained with 1 µg/mL Hoechst (Invitrogen, Thermo Fisher Scientific) diluted in PBS for 10 min. […]

For assay [1], the system named is poly(ADP-ribose) (PAR) polymer. The experiment in a line: Global protein PARylation, western blot and immunofluorescence. The settings on record: 48 and 96 h, western blot. It is filed as cell-based, human. Here is the method:
as §1, with “PBST.” for “PBST. The next day, cells were rinsed three times in PBS for 10 min each, and then incubated 1 h at room temperature in the dark with secondary antibody (see references in Table 3) diluted in 1 % BSA in PBST. After that, they were washed three times with PBS for 5 min each, and their nuclei were stained with 1 µg/mL Hoechst (Invitrogen, Thermo Fisher Scientific) diluted in PBS for 10 min.”
Protein extracts were mixed with loading buffer, which consisted of 10 % (v/v) β-mercaptoethanol (Sigma-Aldrich), 10 % SDS, 50 % (v/v) glycerol, 200 mM Tris-HCl pH 6.8 and 0.1 % bromophenol blue (Sigma-Aldrich). […] Ponceau staining and western blot images were analysed and their band intensities quantitated with Image J software. […]

In another assay the test system is Cx43_HCC1937 cells. Kind of assay: 48 h olaparib dose-response curve, cell viability. The assay is classed as cell-based. The settings on record: Homo sapiens.
The subject of assay [2] is control empty vector (EV) HCC1937 cells. Kind of assay: 48 h olaparib dose-response curve, cell viability. It is filed as cell-based. The settings on record: Homo sapiens, HCC1937, 48 h.

Usually IC50 stands for the point on the concentration scale where inhibition reaches its midpoint. Lower therefore signals higher potency.

With `O=C(c1cc(Cc2n[nH]c(=O)c3ccccc23)ccc1F)N1CCN(C(=O)C2CC2)CC1` [Olaparib, olaparib], the spheroid appearance entry with HCC1937 spheroids (Cx43_HCC1937 spheroids (3000 and 5000), 8 days of 600 µM olaparib, vs well-defined EV_HCC1937 spheroids) is reported as “almost non-existent”. Moreover, the “spheroid size, Cx43-restituted smaller than EV counterparts” value with HCC1937 spheroids (olaparib 200 µM) is listed as 41.7%; in the assay with HCC1937 spheroids (olaparib 400 µM) it was 29.68%; in the assay on HCC1937 spheroids (olaparib 600 µM), 12.57%. Moreover, in the assay with RAD51 and 53BP1 (EV and Cx43_HCC1937), the 53BP1 foci result is recorded as “seemed to rise upon olaparib treatment in both cell lines alike”. For the same compound, the RAD51 foci entry with RAD51 and 53BP1 (EV vs Cx43_HCC1937) is “increased just in EV_HCC1937 cells”. Also, the PAR levels result in assay [1] (Cx43_HCC1937, 50/100 µM olaparib) is listed as “decreased”; in assay [1] (EV_HCC1937, 50/100 µM olaparib), “rose”. Also, the values for the IC50 (with Cx43_HCC1937 cells; in assay [2]) were 350 µM and 602 µM, respectively.

The values are drawn from patent EP4463162B1, “CONNEXIN 43 FOR USE IN TREATING BRCA1/2-MUTATED CANCER” (Fundación Profesor Novoa Santos, priority 2022, dated 2023).
